Results reported in paper PMC9841592 (ACS Medicinal Chemistry Letters, 2022).
Entries after “also recorded” stand apart in the source; their conditions may differ. Like-named read-outs stand apart in the source and are kept apart here. Marks after values point to notes of the source that are not given here.

How the values were obtained:
[1] = molecular target: Human SST2 (Homo sapiens, UniProt P30874); assay type: cell-based
[2] = molecular target: T1, hERG (Homo sapiens, UniProt Q12809); experiment: Patch-clamp hERG assay; assay type: cell-based
[3] = tested on: plasma IGF-1; experiment: Plasma IGF-1 after repeated daily oral dosing in rats; assay type: in vivo, rat; settings: male SD rats
[4] = tested on: plasma IGF-1; experiment: Plasma IGF-1 after repeated daily oral dosing in dogs; assay type: in vivo, dog; settings: p < 0.05
[5] = molecular target: T1, hERG; settings: for hERG ion channel inhibition (in words): hERG inhibition binding assay
[6] = tested on: GH secretion and IGF-1; settings: cited from earlier work; for effect on IGF-1 levels / effect on GHRH-stimulated GH secretion: Phase 1, healthy volunteers; for effect on IGF-1 levels: over several days
[7] = tested on: IGF-1; settings: Phase 2, acromegaly patients switched to oral paltusotine; cited from earlier work
[8] = healthy human volunteers, Phase 1 study; cited from earlier work

T1 sequence (Q12809 whole entry): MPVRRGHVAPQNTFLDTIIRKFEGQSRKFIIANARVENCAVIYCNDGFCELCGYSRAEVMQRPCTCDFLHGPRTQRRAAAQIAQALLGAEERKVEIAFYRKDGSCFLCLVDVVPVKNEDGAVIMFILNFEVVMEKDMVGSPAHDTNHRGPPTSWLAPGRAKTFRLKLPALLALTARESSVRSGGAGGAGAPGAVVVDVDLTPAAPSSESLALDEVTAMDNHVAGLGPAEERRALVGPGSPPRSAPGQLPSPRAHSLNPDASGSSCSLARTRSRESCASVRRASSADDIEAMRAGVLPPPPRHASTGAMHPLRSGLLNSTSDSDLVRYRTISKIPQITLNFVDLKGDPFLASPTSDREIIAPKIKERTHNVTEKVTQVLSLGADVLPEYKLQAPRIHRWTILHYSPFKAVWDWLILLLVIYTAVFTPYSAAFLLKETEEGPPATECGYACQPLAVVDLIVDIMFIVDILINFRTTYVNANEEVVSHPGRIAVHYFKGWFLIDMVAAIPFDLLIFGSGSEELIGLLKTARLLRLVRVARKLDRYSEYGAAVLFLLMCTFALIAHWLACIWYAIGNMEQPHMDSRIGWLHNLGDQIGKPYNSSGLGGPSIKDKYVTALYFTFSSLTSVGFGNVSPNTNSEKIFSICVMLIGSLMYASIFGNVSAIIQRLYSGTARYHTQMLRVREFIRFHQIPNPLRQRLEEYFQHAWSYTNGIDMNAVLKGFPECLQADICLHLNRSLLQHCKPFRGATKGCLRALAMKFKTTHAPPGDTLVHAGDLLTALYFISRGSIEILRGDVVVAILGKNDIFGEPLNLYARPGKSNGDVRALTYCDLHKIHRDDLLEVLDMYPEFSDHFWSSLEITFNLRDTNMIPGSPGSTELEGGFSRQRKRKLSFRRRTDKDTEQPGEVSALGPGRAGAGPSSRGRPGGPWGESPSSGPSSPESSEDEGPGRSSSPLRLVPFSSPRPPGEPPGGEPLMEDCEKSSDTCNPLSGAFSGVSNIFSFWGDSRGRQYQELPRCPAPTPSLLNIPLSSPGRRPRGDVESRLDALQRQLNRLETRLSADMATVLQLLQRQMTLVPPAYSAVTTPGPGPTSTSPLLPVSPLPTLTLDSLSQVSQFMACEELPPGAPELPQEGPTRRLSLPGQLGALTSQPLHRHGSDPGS
Sequence of Human SST2 (P30874 whole entry): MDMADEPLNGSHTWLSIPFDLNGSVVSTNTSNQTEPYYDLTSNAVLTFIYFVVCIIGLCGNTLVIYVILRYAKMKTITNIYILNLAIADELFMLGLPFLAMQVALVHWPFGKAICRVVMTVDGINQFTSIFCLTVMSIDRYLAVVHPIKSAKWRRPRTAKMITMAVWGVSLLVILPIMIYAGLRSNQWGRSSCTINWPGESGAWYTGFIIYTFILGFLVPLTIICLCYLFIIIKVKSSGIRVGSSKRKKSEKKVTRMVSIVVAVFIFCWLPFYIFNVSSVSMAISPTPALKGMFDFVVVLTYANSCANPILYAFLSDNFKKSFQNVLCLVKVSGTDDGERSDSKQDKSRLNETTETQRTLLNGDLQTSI

Compound | selectivity for SST2 over other SST receptor subtypes [1] | IC50 [2] | suppression of plasma IGF-1 relative to vehicle ([3]; 10 mg/kg/day po for 14 days, days 2, 10 and 14, p < 0.05) | suppression of plasma IGF-1 relative to vehicle ([3]; 30 mg/kg/day po for 14 days, all days measured, p < 0.05) | suppression of plasma IGF-1 relative to vehicle, day 1 ([4]; male and female beagle dogs, 150 mg/kg/day po) | suppression of plasma IGF-1 compared to vehicle, day 7 ([4]; male and female beagle dogs, 6, 30 and 150 mg/kg/day po for 7 days) | hERG pIC50±SEM ([5]; hERG binding assay) | hERG ion channel inhibition (in words) [5] | effect on IGF-1 levels ([6]; listed as Paltusotine) | effect on IGF-1 levels ([6]; listed as paltusotine) | effect on GHRH-stimulated GH secretion ([6]; listed as Paltusotine) | effect on GHRH-stimulated GH secretion ([6]; listed as paltusotine) | tolerability ([6]; double-blind placebo-controlled Phase 1 trial, healthy volunteers) | effect on IGF-1 levels after switch from injected depots [7] | oral bioavailability [8]
N#Cc1cccc(-c2ccc3ncc(-c4cc(F)cc(F)c4)c(N4CCC(N)CC4)c3c2)c1O [Compound 22, 3-[4-(4-aminopiperidin-1-yl)-3-(3,5-difluorophenyl)quinolin-6-yl]-2-hydroxybenzonitrile] | > 1000 fold | 9.9 µM | significantly suppressed | significantly suppressed | significantly suppressed | significantly suppressed | <5 ^c | weak inhibitors; also recorded: no direct inhibition | dose-dependent reduction | lowered IGF-1 levels | dose-dependent reduction | acutely suppressed | good tolerability | maintain IGF-1 levels | ~70%
N#Cc1cccc(-c2ccc3ncc(-c4cccc(F)c4)c(N4CCC(N)CC4)c3c2)c1O [Compound 25] |  |  |  |  |  |  |  | weak inhibitors |  |  |  |  |  |  | 
N#Cc1cc(F)cc(-c2ccc3ncc(-c4cc(F)cc(F)c4)c(N4CCC(N)CC4)c3c2)c1O [Compound 24] |  |  |  |  |  |  |  | weak inhibitors |  |  |  |  |  |  | 
